From paper PMC6917776, “Discovery of a chemical probe for PRDM9” (Nature Communications, 2019) come the findings set out here.

Type in all cases: biochemical
One test deals with T1, DNMT1 (Homo sapiens, UniProt P26358).
T1 construct: purchased Structural Genomics Consortium (SGC Toronto) in-house methyltransferase panel
The test can be described thus: Methyltransferase selectivity assay (SPA). The protocol: (§1) Selectivity against methyltransferases were determined as described previously. Details of the assays are described in the supplementary methods.
(§2) Methyltransferase selectivity assay1
The effect of chemical probes and negative controls on the methyltransferase activities of protein, DNA and RNA methyltransferases was tested by radiometric assays using 3H-SAM. For proteins such as MLL1 trimeric, MLL3 pentameric, EZH1 (PRC2) pentameric, and EZH2 (PRC2) trimeric complexes, as well as G9a, GLP, SUV39H1, SUV39H2, SUV420H1, SUV420H2, SETD2, SETD8, SETDB1, SETD7, PRMT1, PRMT3, PRMT4, PRMT5/ MEP50 complex, PRMT6, PRMT7, PRMT8, PRMT9, PRDM9, SMYD2, SMYD3, DNMT1, and BCDIN3D the incorporation of a tritium-labeled methyl group into biotinylated substrate was monitored using scintillation proximity assay (SPA). Briefly, a 10 µL reaction containing 3H-SAM and substrate at concentrations close to the apparent Km values for each enzyme (balanced conditions) was prepared. The reactions were quenched with 10 µL of 7.5 M guanidine hydrochloride; 180 µL of 20 mM Tris buffer (pH 8.0) were added, and the mixture was transferred to a 96-well FlashPlate and incubated for 1 h. The counts per minute (CPM) was measured on a TopCount plate reader. The CPM in the absence of compound or enzyme was defined as 100% activity and background (0%), respectively, for each dataset. For DNMT1, the double-stranded DNA substrate was prepared by annealing two complementary strands (biotinylated forward strand: B-[…] and reverse strand: […]

The target of a further test is T2, NSD2 (Homo sapiens, UniProt O96028).
T2 construct: purchased Structural Genomics Consortium (SGC Toronto) in-house methyltransferase panel
T2 sequence (O96028 1-1365): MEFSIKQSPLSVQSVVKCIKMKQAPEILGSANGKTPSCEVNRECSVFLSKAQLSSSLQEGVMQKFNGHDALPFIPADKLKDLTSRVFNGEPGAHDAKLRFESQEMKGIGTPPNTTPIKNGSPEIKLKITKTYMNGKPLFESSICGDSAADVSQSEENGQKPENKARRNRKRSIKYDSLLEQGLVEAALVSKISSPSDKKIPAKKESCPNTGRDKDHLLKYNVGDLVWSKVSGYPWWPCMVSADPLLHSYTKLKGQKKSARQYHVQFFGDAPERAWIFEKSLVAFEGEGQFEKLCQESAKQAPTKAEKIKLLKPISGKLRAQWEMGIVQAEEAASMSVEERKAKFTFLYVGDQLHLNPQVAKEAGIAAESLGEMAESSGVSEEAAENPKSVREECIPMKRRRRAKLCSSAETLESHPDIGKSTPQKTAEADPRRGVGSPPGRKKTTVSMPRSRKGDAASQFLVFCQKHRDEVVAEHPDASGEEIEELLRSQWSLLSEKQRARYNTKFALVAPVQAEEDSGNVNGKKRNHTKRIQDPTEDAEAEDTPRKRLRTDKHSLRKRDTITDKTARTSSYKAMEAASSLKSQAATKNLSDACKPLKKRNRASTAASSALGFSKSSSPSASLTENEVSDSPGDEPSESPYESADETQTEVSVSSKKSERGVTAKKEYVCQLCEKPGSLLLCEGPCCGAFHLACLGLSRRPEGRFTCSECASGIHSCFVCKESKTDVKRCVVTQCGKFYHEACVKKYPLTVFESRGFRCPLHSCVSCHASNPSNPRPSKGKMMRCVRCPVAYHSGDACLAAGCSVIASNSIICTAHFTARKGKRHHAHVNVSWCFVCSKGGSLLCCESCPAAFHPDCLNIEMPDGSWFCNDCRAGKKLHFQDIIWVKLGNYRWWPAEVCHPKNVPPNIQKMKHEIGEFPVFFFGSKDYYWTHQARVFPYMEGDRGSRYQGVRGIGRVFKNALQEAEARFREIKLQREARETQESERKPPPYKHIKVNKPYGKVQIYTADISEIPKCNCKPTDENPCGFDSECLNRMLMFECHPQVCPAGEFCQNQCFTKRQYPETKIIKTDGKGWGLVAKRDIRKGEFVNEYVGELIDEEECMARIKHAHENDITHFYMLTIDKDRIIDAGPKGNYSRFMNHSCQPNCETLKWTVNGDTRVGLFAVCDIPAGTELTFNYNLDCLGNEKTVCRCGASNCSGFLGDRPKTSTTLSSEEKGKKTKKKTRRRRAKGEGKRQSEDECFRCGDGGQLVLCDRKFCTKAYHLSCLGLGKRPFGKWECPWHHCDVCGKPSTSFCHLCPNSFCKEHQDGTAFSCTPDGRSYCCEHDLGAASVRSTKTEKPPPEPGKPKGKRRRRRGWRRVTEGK
The test can be described thus: Methyltransferase selectivity assay (filter-based, nucleosome substrate). The protocol:
as §1, §2
(§3) The effect of chemical probes and negative controls on the methyltransferase activities of protein, DNA and RNA methyltransferases was tested by radiometric assays using 3H-SAM. […]
(§4) The CPM in the absence of compound or enzyme was defined as 100% activity and background (0%), respectively, for each dataset. […]
(§5) For proteins which were tested with nucleosome as substrate such as DOT1L, NSD1, NSD2, NSD3, and ASH1L, or unbiotinylated Poly(2′-deoxyinosinic-2′-deoxycytidylic acid) (Cat# 81349-500UG, Sigma Aldrich) such as DNMT3A/3L, and DNMT3B/3L, a filter-based assay was used. In this assay, a trichloroacetic acid (TCA) protein precipitation protocol was employed. A 10 µL reaction mixture was incubated at 23°C for 1 h, followed by addition of 50 µL of 10% TCA. The mixture was transferred to filter plates (Millipore, Billerica, MA, USA) that were centrifuged at 2000 rpm (Allegra X-15R; Beckman Coulter, Brea, CA, USA) for 2 min. Samples were washed twice with 10% TCA and once with ethanol (180 µL), and centrifuged. After drying, 100 µL MicroScint-O (Perkin Elmer) was added to each well and the plates were centrifuged to remove the liquid. A 70 µL volume of MicroScint-O was added and the CPM was measured with a TopCount plate reader.

The target of a further test is T3, DNMT3A/3L (Homo sapiens, UniProt Q9Y6K1).
T3 construct: purchased Structural Genomics Consortium (SGC Toronto) in-house methyltransferase panel
The test can be described thus: Methyltransferase selectivity assay (filter-based). The protocol:
as §1, §2, §3
Briefly, a 10 µL reaction containing 3H- […]
as §4, §5

Another test addresses T4, DNMT3B/3L (Homo sapiens, UniProt Q9UBC3).
T4 construct: purchased Structural Genomics Consortium (SGC Toronto) in-house methyltransferase panel
The test can be described thus: Methyltransferase selectivity assay (filter-based). The settings on record: for activity at 1 µM: 1µM compound; for activity at 10 µM / Activity %: 10µM compound; for Activity %: Exp1, Exp2, 10 µM. The protocol:
as §1, §2, §3
The counts per minute (CPM) was measured on a TopCount plate reader. The CPM in the absence of compound or enzyme was defined as 100% activity and background (0%), respectively, for each dataset. […]
as §5

The mark [1] stands for this setting: 10µM compound, Exp1, Exp2, 10 µM.
Where [2] appears, read: 1µM compound, Exp1, Exp2, read-out: Activity %.
The mark [3] stands for this setting: 10µM compound, Exp1, Exp2, read-out: Activity %.
[4] abbreviates: Exp1, Exp2, read-out: Activity %.

SMILES strings stand for the structures. Read-outs that look alike come from different tables or passages of the source.

T1 sequence (P26358 whole entry): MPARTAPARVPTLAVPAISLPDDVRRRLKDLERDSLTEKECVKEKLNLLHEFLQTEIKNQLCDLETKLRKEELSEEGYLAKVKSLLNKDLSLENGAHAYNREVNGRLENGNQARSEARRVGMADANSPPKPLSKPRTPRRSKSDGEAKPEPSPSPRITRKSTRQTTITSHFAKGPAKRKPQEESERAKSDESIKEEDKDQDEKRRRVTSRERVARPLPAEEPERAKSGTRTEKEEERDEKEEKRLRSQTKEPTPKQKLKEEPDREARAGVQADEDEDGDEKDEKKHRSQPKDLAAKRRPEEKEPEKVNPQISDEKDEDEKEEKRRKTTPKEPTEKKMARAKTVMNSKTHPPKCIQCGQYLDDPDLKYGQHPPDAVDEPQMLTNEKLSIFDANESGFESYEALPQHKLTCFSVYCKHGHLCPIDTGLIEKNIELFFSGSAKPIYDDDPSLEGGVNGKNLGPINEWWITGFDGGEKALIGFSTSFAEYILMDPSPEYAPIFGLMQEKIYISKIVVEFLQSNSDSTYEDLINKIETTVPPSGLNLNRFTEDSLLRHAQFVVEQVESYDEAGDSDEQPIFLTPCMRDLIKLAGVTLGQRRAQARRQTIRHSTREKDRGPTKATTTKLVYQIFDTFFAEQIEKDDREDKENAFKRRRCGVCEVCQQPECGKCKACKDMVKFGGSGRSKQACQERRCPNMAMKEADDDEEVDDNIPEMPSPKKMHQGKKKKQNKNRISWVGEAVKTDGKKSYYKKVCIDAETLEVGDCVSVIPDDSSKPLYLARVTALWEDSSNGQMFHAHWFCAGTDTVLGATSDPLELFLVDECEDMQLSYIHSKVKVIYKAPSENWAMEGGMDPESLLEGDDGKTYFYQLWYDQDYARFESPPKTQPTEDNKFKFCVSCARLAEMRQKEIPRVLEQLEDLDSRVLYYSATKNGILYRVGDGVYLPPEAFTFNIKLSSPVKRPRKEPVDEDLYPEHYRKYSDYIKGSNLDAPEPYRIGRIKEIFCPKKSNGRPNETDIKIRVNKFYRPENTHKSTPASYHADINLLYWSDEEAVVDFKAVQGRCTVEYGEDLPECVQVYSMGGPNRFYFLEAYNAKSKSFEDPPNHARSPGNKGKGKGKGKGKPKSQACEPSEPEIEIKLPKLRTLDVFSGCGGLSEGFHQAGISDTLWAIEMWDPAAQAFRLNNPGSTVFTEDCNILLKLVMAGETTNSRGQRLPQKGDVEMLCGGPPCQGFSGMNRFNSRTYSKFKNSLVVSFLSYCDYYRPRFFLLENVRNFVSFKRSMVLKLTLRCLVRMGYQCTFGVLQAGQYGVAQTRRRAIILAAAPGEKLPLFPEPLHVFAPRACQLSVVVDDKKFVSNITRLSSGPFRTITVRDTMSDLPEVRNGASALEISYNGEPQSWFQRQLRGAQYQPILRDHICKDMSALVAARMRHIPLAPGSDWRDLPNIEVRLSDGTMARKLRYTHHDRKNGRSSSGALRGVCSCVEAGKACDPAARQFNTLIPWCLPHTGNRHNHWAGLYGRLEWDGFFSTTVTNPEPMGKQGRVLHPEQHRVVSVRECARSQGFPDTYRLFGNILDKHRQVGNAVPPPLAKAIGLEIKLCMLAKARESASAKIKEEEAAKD

Turning to `COc1cc(OC)cc(-c2noc(N3CCN(C)C4(CCN(c5ccccc5)CC4)C3)n2)c1` [MRK-740 -NC], the activity at 1 µM at DNMT1 (1µM compound, Exp1, Exp2) was 105%; on NSD2 (1µM compound, Exp1, Exp2) it was 98%; at DNMT3A/3L (1µM compound, Exp1, Exp2) it was 100%; on DNMT3B/3L (Exp1, Exp2), 101%. Besides, the activity at 10 µM at DNMT1 (10µM compound, Exp1, Exp2) came out at 102%; on NSD2 (10µM compound, Exp1, Exp2), 98%; at DNMT3A/3L (10µM compound, Exp1, Exp2), 96%; at DNMT3B/3L (Exp1, Exp2) it was 99%. For the same compound, the Activity % at DNMT1 (setting [1]) was 98%; at NSD2 (1µM compound, Exp1, Exp2, 1 µM) it was 100%; at NSD2 (setting [1]), 88%; on DNMT3A/3L (1µM compound, Exp1, Exp2, 1 µM), 91%; on DNMT3A/3L (setting [1]), 87%; at DNMT3B/3L, 97%.

With `COc1cc(OC)cc(-c2noc(N3CCN(C)C4(CCN(c5ccnc(C)c5)CC4)C3)n2)c1` [MRK-740], the Activity % at DNMT1 (1µM compound, Exp1, Exp2, 1 µM) amounted to 95%; on DNMT1 (setting [1]), 101%; on NSD2 (1µM compound, Exp1, Exp2, 1 µM), 97%; on NSD2 (setting [1]), 95%; at DNMT3A/3L (1µM compound, Exp1, Exp2, 1 µM), 107%; at DNMT3B/3L, 90%. Besides, the activity at 1 µM was 98% on DNMT1 (setting [2]), 91% on NSD2 (setting [2]), 108% at DNMT3A/3L (setting [2]) and 100% at DNMT3B/3L (setting [4]). For the same compound, the activity at 10 µM at DNMT1 (setting [3]) is 99%; at NSD2 (setting [3]), 98%; at DNMT3A/3L (setting [3]) it was 100%; at DNMT3B/3L (setting [4]), 82%.
